The text below walks through data of US9000175B2, “Bicyclic GPR119 modulators” (Lupin Limited, priority 2010, dated 2015).

Where “and” joins values, the source holds several entries; their conditions need not be identical. Identical values can stand only once. A value given as a limit tells only on which side of the number the result lay.

The assay addresses T1, human GPR119 (Homo sapiens, UniProt Q8TDV5).
T1 construct: expressed in transfected cells
T1 sequence (Q8TDV5 1-335): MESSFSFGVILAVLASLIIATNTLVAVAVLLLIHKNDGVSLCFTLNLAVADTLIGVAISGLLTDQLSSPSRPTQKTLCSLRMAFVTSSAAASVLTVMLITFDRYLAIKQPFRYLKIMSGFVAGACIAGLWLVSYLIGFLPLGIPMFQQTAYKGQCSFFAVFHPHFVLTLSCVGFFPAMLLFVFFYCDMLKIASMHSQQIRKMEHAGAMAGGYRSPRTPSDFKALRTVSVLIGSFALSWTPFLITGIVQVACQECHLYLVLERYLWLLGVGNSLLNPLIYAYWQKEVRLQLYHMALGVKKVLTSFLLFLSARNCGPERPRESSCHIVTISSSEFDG
Put plainly: Cyclic AMP assay in stable cell line. The class given is cell-based. The note with it: CHO-K1 cells stably transfected with human GPR119; cAMP levels (FRET, cAMP femto kit); 1 h at 37° C; read-out: EC50 Range. As to the method: Cyclic AMP Assay in Stable Cell Line:
Chinese Hamster Ovary (CHO-K1) cells were stably transfected with human GPR119 and were maintained in Ham's F-12 complete medium containing 10% heat inactivated FBS (Sigma, UK). The cells were maintained under a selection pressure with 500 μg/ml G418 (GENETICIN). Stable clones were analyzed for functional cAMP response to OEA (oleoylethanolamide).
To estimate activation of GPR119 and induction of cAMP levels by GPR119 agonists, cells were serum starvation for 18-24 h, trypsinized and seeded in 96 well plates at a, density of 7500 cells/well. The cells were then treated with test compounds diluted in serum free Ham's F12 for 1 h at 37° C. The cAMP levels were measured by using the cAMP femto kit (CisBio) by following the manufacturer's instructions. Following treatment with a test compound, the cells were lysed and cAMP levels were estimated by adding D2-labelled cAMP and europium-cryptate conjugated anti-cAMP antibody. Close proximity of D2 and cryptate results in FRET and the subsequent fluorescence that is measured at 665 and 620 nm. The FRET response is calculated as the ratio of fluorescence at 665 to fluorescence at 620 nm. The unlabelled cAMP produced as a result of GPR119 activation/agonism competes with the D2-cAMP leading to a decrease in the FRET signal. Thus the FRET signal is inversely proportional to the amount of cAMP produced by the treated cells. In a separate set of wells, known concentrations of cAMP were added in order to get a standard linear curve for extrapolation of the cAMP values in the unknown/test samples. Fluorescence was measured on BMG Labtech PHERAstar machine.
The concentration of compound required to stimulate a half-maximal response (EC50) was determined using the GraphPad Prism software.
The compounds prepared were tested using the above assay procedure and the results obtained are given below.

For orientation: EC50 means the concentration at which the effect is half-maximal. Take `CC(C)(C)OC(=O)N1CCC(Oc2ccc(-n3ccc4cc(S(C)(=O)=O)ccc43)nc2)CC1` [Example-1, tert-Butyl-4-((6-(5-(methylsulfonyl)-1H-indol-1-yl)pyridin-3-yl)oxy) piperidine-1-carboxylate]: the EC50 was below 50 nM.
The figure for `CCc1cnc(N2CCC(Oc3ccc(-n4ccc5cc(S(C)(=O)=O)ccc54)nc3)CC2)nc1` [Example-2, 1-(5-((1-(5-Ethylpyrimidin-2-yl)piperidin-4-yl)oxy)pyridin-2-yl)-5-(methylsulfonyl)-1H-indole] is below 50 nM.
Next, `CC(C)c1noc(N2CCC(Oc3ccc(-n4ccc5cc(S(C)(=O)=O)ccc54)nc3)CC2)n1` [Example-4, 3-Isopropyl-5-(4-((6-(5-(methylsulfonyl)-1H-indol-1-yl)pyridin-3-yl)oxy)piperidin-1-yl)-1,2,4-oxadiazole]: below 50 nM; `CC(C)(C)OC(=O)N1CCC(COc2ccc(-n3ccc4cc(S(C)(=O)=O)ccc43)nc2)CC1` [Example-5, tert-Butyl-4-(((6-(5-(methylsulfonyl)-1H-indol-1-yl)pyridin-3-yl)oxy)methyl)piperidine-1-carboxylate]: below 50 nM.
Next, `CCc1cnc(N2CCC(COc3ccc(-n4ccc5cc(S(C)(=O)=O)ccc54)nc3)CC2)nc1` [Example-6, 1-(5-((1-(5-Ethylpyrimidin-2-yl)piperidin-4-yl)methoxy)pyridin-2-yl)-5-(methylsulfonyl)-1H-indole]: below 50 nM; `CCOC(=O)Nc1ccc2c(ccn2-c2ccc(OC3CCN(C(=O)OC(C)(C)C)CC3)cn2)c1` [Example-8, tert-Butyl-4-((6-(5-((ethoxycarbonyl)amino)-1H-indol-1-yl)pyridin-3-yl)oxy)piperidine-1-carboxylate]: below 50 nM; `CCOC(=O)Nc1ccc2c(ccn2-c2ccc(OC3CCN(c4ncc(CC)cn4)CC3)cn2)c1` [Example-9, Ethyl(1-(5-((1-(5-ethylpyrimidin-2-yl)piperidin-4-yl)oxy)pyridin-2-yl)-1H-indol-5-yl)carbamate]: below 50 nM.
As for `CCc1cnc(N2CCC(Oc3ccc(-n4ccc5cc(S(=O)(=O)CC)ccc54)nc3)CC2)nc1` [Example-11, 1-(5-((1-(5-Ethylpyrimidin-2-yl)piperidin-4-yl)oxy)pyridin-2-yl)-5-(ethylsulfonyl)-1H-indole], the EC50 is below 50 nM.
As to `CCS(=O)(=O)c1ccc2c(ccn2-c2ccc(OC3CCN(CC(C)(C)O)CC3)cn2)c1` [Example-13, 1-(4-((6-(5-(Ethylsulfonyl)-1H-indol-1-yl)pyridin-3-yl)oxy)piperidin-1-yl)-2-methylpropan-2-ol], the concentration giving a half-maximal response (EC50) is 50 to 250 nM.
Next, `CC(C)(F)CN1CCC(Oc2ccc(-n3ccc4cc(S(C)(=O)=O)ccc43)nc2)CC1` [Example-14, 1-(5-((1-(2-Fluoro-2-methylpropyl)piperidin-4-yl)oxy)pyridin-2-yl)-5-(methylsulfonyl)-1H-indole]: below 50 nM; `Cc1noc(N2CCC(Oc3ccc(-n4ccc5cc(S(=O)(=O)C(C)C)ccc54)nc3)CC2)n1` [Example-18, 5-(4-((6-(5-(Isopropylsulfonyl)-1H-indol-1-yl)pyridin-3-yl)oxy)piperidin-1-yl)-3-methyl-1,2,4-oxadiazole]: 50 to 250 nM; `CCc1cnc(N2CCC(Nc3ccc(-n4ccc5cc(C(=O)N(C)C)ccc54)nc3)CC2)nc1` [Example-22, 1-(5-((1-(5-Ethylpyrimidin-2-yl)piperidin-4-yl)amino)pyridin-2-yl)-N,N-dimethyl-1H-indole-5-carboxamide]: below 50 nM.
Next, `CC(C)CN1CCC(Oc2ccc(-n3ccc4cc(S(C)(=O)=O)ccc43)nc2)CC1` [Example-30, 1-(5-((1-Isobutylpiperidin-4-yl)oxy)pyridin-2-yl)-5-(methylsulfonyl)-1H-indole]: < 50 nM and 50 to 250 nM; `CC(C)(C)CN1CCC(Oc2ccc(-n3ccc4cc(S(C)(=O)=O)ccc43)nc2)CC1` [Example-35, 5-(Methylsulfonyl)-1-(5-((1-neopentylpiperidin-4-yl)oxy)pyridin-2-yl)-1H-indole]: below 50 nM.
The figure for `CN(C)C(=O)c1ccc2c(ccn2-c2ccc(OC3CCN(C(=O)OC(C)(C)C)CC3)cn2)c1` [Example-39, tert-Butyl-4-((6-(5-(dimethylcarbamoyl)-1H-indol-1-yl)pyridin-3-yl)oxy) piperidine-1-carboxylate] is below 50 nM; for `CCc1cnc(N2CCC(Oc3ccc(-n4ccc5cc(C(=O)N(C)C)ccc54)nc3)CC2)nc1` [Example-40, 1-(5-((1-(5-Ethylpyrimidin-2-yl)piperidin-4-yl)oxy)pyridin-2-yl)-N,N-dimethyl-1H-indole-5-carboxamide] it is below 50 nM; for `CCc1cnc(N2CCC(OCc3ccc(-n4ccc5cc(S(C)(=O)=O)ccc54)nc3)CC2)nc1` [Example-42, 1-(5-(((1-(5-Ethylpyrimidin-2-yl)piperidin-4-yl)oxy)methyl)pyridin-2-yl)-5-(methylsulfonyl)-1H-indole] it is 50 to 250 nM.
Consider `CN(C)C(=O)c1ccc2c(ccn2-c2ccc(OCC3CCN(C(=O)OC(C)(C)C)CC3)cn2)c1` [Example-45, tert-butyl 4-(((6-(5-(dimethylcarbamoyl)-1H-indol-1-yl)pyridin-3-yl)oxy)methyl)piperidine-1-carboxylate], for which the EC50 is < 50 nM and 50 to 250 nM.
Next, `CC(C)(C)OC(=O)N1CCC(OCc2ccc(N3CCc4cc(S(C)(=O)=O)ccc43)nc2)CC1` [Example-46, tert-Butyl-4-((6-(5-(methylsulfonyl)indolin-1-yl)pyridin-3-yl)methoxy) piperidine-1-carboxylate]: below 50 nM.
The figure for `CC(C)(C)OC(=O)N1CC2COCC(C1)C2Oc1ccc(-n2ccc3cc(S(C)(=O)=O)ccc32)nc1` (stereo not drawn) [Example-48, (syn)-tert-Butyl-9-((6-(5-(methylsulfonyl)-1H-indol-1-yl)pyridin-3-yl)oxy)-3-oxa-7-azabicyclo[3.3.1]nonane-7-carboxylate] is 50 to 250 nM.
Next, `CC(C)(C)OC(=O)N1CC2COCC(C1)C2Oc1ccc(-n2ccc3cc(S(C)(=O)=O)ccc32)nc1` (stereo not drawn) [Example-49, (anti) tert-Butyl-9-((6-(5-(methylsulfonyl)-1H-indol-1-yl)pyridin-3-yl)oxy)-3-oxa-7-azabicyclo[3.3.1]nonane-7-carboxylate]: below 50 nM; `CCc1cnc(N2CC3COCC(C2)C3Oc2ccc(-n3ccc4cc(S(C)(=O)=O)ccc43)nc2)nc1` (stereo not drawn) [Example-51, anti 7-(5-Ethylpyrimidin-2-yl)-9-((6-(5-(methylsulfonyl)-1H-indol-1-yl)pyridin-3-yl)oxy)-3-oxa-7-azabicyclo[3.3.1]nonane]: below 50 nM.
Take `CCc1cnc(N2CCC(Oc3ccc(-n4ccc5cc(C(=O)NC6CC6)ccc54)nc3)CC2)nc1` [Example-54, N-Cyclopropyl-1-(5-((1-(5-ethylpyrimidin-2-yl)piperidin-4-yl)oxy)pyridin-2-yl)-1H-indole-5-carboxamide]: the EC50 was below 50 nM.
Turning to `CC(C)C(=O)Nc1ccc2c(ccn2-c2ccc(OC3CCN(C(=O)OC(C)(C)C)CC3)cn2)c1` [Example-56, tert-Butyl-4-((6-(5-isobutyramido-1H-indol-1-yl)pyridin-3-yl)oxy)-piperidine-1-carboxylate], the EC50 was below 50 nM.
